Measurements reported in PubChem BioAssay AID1159557 (GlaxoSmithKline (GSK), 2015).
The source made the active and inactive calls. The rule behind the calls is not given here.

System: Trypanosoma brucei growth inhibition
Assay: trypanosome proliferation inhibitors (AID 1159557);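 note: parasites exposed to compound for 48 h before the resazurin readout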

Going from `CCN(CC)c1ncc(C(=O)c2ccc([N+](=O)[O-])o2)s1` to `O=C(NCC(c1cccs1)N1CCOCC1)c1ccc([N+](=O)[O-])o1` (centres undefined), the IC50 rises from 100 nM to 320 nM (3.2-fold).

Compared with `NCC(Cc1ccccc1)NC(=O)c1cnc(-c2c[nH]c3ncccc23)s1` (centres undefined), `O=C(Nc1ccccc1)Nc1nc(-c2ccccn2)cs1` is 2.5-fold higher in IC50: 400 nM for the first, 1000 nM for the second.

Compared with `N#Cc1ccc(Br)cc1[N+](=O)[O-]`, `Cc1cc2ncn(-c3ccc([N+](=O)[O-])cc3C#N)c2cc1C` is 120-fold higher in IC50: 160 nM for the first, 20000 nM for the second. The first is the more potent here.

Going from `Cc1c(Nc2cc(C3CC3)[nH]n2)ccc(C#N)c1Cl` to `Cc1cc(Nc2cc(C3CC3)[nH]n2)nc(N2CCCC2)n1`, the IC50 falls from 400 nM to 50 nM (8-fold). The second is the more potent here.

Going from `O=c1cc(NCCCNCc2cc(C(F)(F)F)cs2)[nH]c2ccccc12` to `Cc1cc(Br)sc1CNCCCNc1cc(=O)c2ccccc2[nH]1`, the IC50 falls from 320 nM to 63 nM (5.1-fold).

Compared with `Cc1cc(N2CCc3ccccc3C2)nc(Nc2ccc(S(=O)(=O)N3CCOCC3)cc2)n1`, `Cc1ccc(Nc2nc(-c3ccccn3)cc(N3CCCC(O)C3)n2)cc1` (centres undefined) is 10-fold lower in IC50: 32000 nM for the first, 3200 nM for the second. The second is the more potent here.

First: COc1ccc(CN2C(=O)C(O)(CC(=O)c3ccncc3)c3cc(Br)ccc32)cc1OC (centres undefined)
Second: COc1ccc(C2CC(c3ccc(NS(C)(=O)=O)cc3)=NN2C(=O)c2cccs2)cc1OC (centres undefined)
The IC50 of the first is 25-fold lower: 630 nM for the first, 16000 nM for the second.

Compared with `CCOc1ccc(OCC(=O)N2c3ccccc3CC2C(=O)NC)cc1` (centres undefined), `CNC(=O)C1Cc2ccccc2N1C(=O)Cc1ccc(F)cc1` (centres undefined) is 2-fold lower in IC50: 500 nM for the first, 250 nM for the second.

`CNS(=O)(=O)c1ccccc1Nc1nc(Nc2ccnn2C)ncc1Cl` and `CNS(=O)(=O)c1ccccc1Nc1nc(Nc2cc(C)nn2C)ncc1Cl` are the same in IC50: 63 nM for the first, 63 nM for the second.

Going from `Cc1nn(-c2nc(N)nc(-c3ccccn3)n2)c(N)c1-c1ccccc1` to `Nc1nc(-c2ccccc2)cc(-c2nc3ncccc3[nH]2)n1`, the IC50 rises from 2000 nM to 10000 nM (5-fold).

First: COCCn1c(-c2ccccc2)cnc1NCc1ccccc1OC
Second: COC(=O)c1ccc(-c2cnc3ccc(NCc4ccccn4)nn23)cc1
The IC50 of the first is 40-fold higher: 25000 nM for the first, 630 nM for the second. The second is the more potent here.

Compared with `O=C(Nc1ccccc1C(=O)Nc1ccccn1)c1ccco1`, `O=C(COc1ccccc1)Nc1ccccc1C(=O)Nc1nccs1` is 1.6-fold higher in IC50: 250 nM for the first, 400 nM for the second.

Compared with `O=C(CCCNC(=O)c1ccc(Cl)cc1)Nc1nc(-c2ccccn2)cs1`, `O=C(Nc1nc(-c2ccccn2)cs1)N1C[C@H]2C[C@@]2(c2ccccc2)C1` is 16-fold lower in IC50: 7900 nM for the first, 500 nM for the second. The second is the more potent here.

`C=CCn1nc([N+](=O)[O-])nc1Oc1ccc(Cl)cc1Cl` and `COc1ccc([N+](=O)[O-])cc1NC(=O)c1cc(Cl)ccc1O` are within 1.5-fold of each other in IC50: 20000 nM for the first, 25000 nM for the second.

First: O=C(c1cccc(Nc2ncc(-c3ccc4c(c3)OCO4)cn2)c1)N1CCSC1
Second: COc1ncc(-c2ccc3ncnc(N4CCOCC4)c3c2)cc1NS(C)(=O)=O
The IC50 of the first is 41-fold higher: 13000 nM for the first, 320 nM for the second.

Compared with `CC(C)CC(=O)Nc1cc(C2CC2)nn1-c1nc2c(c(=O)[nH]1)CCCC2`, `CCc1nn(-c2ncc(F)c(NC(C)C)n2)c(N)c1C1CCCCC1` is 50-fold higher in IC50: 200 nM for the first, 10000 nM for the second.

Going from `NC(=O)c1cc(F)ccc1Nc1nc(NC2CCC(O)CC2)ncc1Br` (centres undefined) to `Cc1cnc(Nc2cc(Cc3ccccc3)nc(NC3CCC(O)CC3)n2)s1` (centres undefined), the IC50 falls from 79 nM to 25 nM (3.2-fold).

Compared with `CNc1nc(C)nc(N2CCc3cc(C(=O)NCc4ccc(-c5nccn5C)cc4Cl)ccc32)n1`, `Cc1cccnc1NC(=O)c1cccc(OCc2c(C)noc2C)c1` is 32-fold lower in IC50: 13000 nM for the first, 400 nM for the second. The second is the more potent here.

First: COc1ccccc1C1CC(c2ccc(NS(C)(=O)=O)cc2)=NN1C(=O)c1cccs1 (centres undefined)
Second: COc1ccc(-c2nc3ncccc3o2)cc1NC(=O)c1cccs1
The IC50 of the first is 12-fold higher: 16000 nM for the first, 1300 nM for the second.

Going from `Cc1ccc(NC(=O)c2ccc(Cl)c(NC(=O)c3ccc([N+](=O)[O-])cc3)c2)cc1` to `O=C(Nc1cccc(Cl)c1)Nc1ccc([N+](=O)[O-])cc1Cl`, the IC50 falls from 7900 nM to 2500 nM (3.2-fold).

First: CCCN1CCN(Cc2ccc(S(=O)(=O)Nc3cccc(C)c3)cc2)CC1
Second: COc1ccc(S(=O)(=O)Nc2ccc(CN3CCN(C(=O)c4cccc(C#N)c4)CC3)cc2)cc1
The IC50 of the first is 62-fold higher: 25000 nM for the first, 400 nM for the second.

Going from `CC(C)(C)c1cc(NC2CC2)nc(-c2ccccn2)n1` to `COc1ccc(Nc2nc(-c3ccccn3)cs2)c(OC)c1`, the IC50 rises from 7900 nM to 20000 nM (2.5-fold). The first is the more potent here.

First: CCCCN(C(=O)c1ccc(NC(=O)C(C)C)cc1)c1ccccc1
Second: O=C(NNC(=O)c1ccccn1)c1ccc(-c2ccccc2)cc1
The IC50 of the first is 50-fold higher: 16000 nM for the first, 320 nM for the second. The second is the more potent here.

First: O=[N+]([O-])c1ccc(-c2nnn(-c3ccc(Cl)cc3)n2)o1
Second: O=C(Cn1cnc([N+](=O)[O-])n1)Nc1ccc(Cl)cc1C(=O)c1ccccc1
The IC50 of the first is 62-fold lower: 320 nM for the first, 20000 nM for the second. The first is the more potent here.

Going from `CC1CCCCN1C(=O)NCCc1coc(-c2ccc(F)cc2)n1` (centres undefined) to `O=C(c1ccc(OCCCc2cnc[nH]2)cc1)C1CC1`, the IC50 rises from 130 nM to 10000 nM (77-fold). The first is the more potent here.

First: O=c1oc2ccccc2n1C1CCN(Cc2ccccc2-c2cccnc2)CC1
Second: O=C1COC(c2ccccc2)(c2ccccc2)CN1C1CCN(Cc2ccc(-n3ccnc3)cc2)CC1
The IC50 of the first is 51-fold higher: 40000 nM for the first, 790 nM for the second.

Compared with `CN(Cc1nc2ccccc2s1)C(=O)C=Cc1cc2ccccc2o1`, `Cn1c(CC(=O)NNC(=O)c2ccc3ccccc3n2)nc2ccccc21` is 4.1-fold lower in IC50: 32000 nM for the first, 7900 nM for the second. The second is the more potent here.

Going from `Cc1[nH]nc(Nc2ccnc3[nH]ccc23)c1C` to `CS(=O)(=O)c1ccc(Nc2nccc(Nc3n[nH]c4ccc(F)cc34)n2)c(F)c1`, the IC50 rises from 130 nM to 500 nM (3.8-fold). The first is the more potent here.

First: CCC(=O)N1N=C(c2ccc3c(c2)CCCC3)Sc2c1ncn2C(=O)CC
Second: CN(C(=O)Nc1ccc2c(c1)CCN(C1CCC1)CC2)c1ccc(C#N)cc1
The IC50 of the first is 80-fold higher: 16000 nM for the first, 200 nM for the second.

First: CN(Cc1cccnc1)Cc1ccc(N2CCN(C(=O)C3(c4ccc(Cl)cc4)CC3)CC2)nc1
Second: COc1ccc2nc(N(Cc3cccnc3)C(=O)C3CCC3)sc2c1
The IC50 of the first is 1.6-fold higher: 32000 nM for the first, 20000 nM for the second.

`CCOC(=O)c1noc(N)c1-c1ccccc1` and `CCOC(=O)c1cn[nH]c1S(=O)(=O)N1CCC1c1ccccc1` (centres undefined) are the same in IC50: 630 nM for the first, 630 nM for the second.

First: O=C1CN(C2CCCc3c(OCc4ccncc4)cccc32)C(=O)N1C1CCCCC1 (centres undefined)
Second: Cc1cc(NC(=O)C2CC2)ccc1OC1CCN(Cc2ccco2)CC1
The IC50 of the first is 120-fold higher: 16000 nM for the first, 130 nM for the second.

Going from `Cc1cc2nc(CN(C)Cc3ncccc3C)[nH]c2cc1C` to `CCOc1cc(NCCCN2CCN(C)CC2)c2ncccc2c1`, the IC50 rises from 630 nM to 13000 nM (21-fold).

`CN1C(=O)c2ccccc2Sc2ccc(NC(=O)NCc3ccco3)cc21` and `COc1cccc(NS(=O)(=O)c2ccc3[nH]cc(C(=O)NCCC(C)C)c(=O)c3c2)c1` are within 1.5-fold of each other in IC50: 400 nM for the first, 320 nM for the second.

First: COc1cc(-c2nc(N3CCOCC3)sc2-c2ccnc(NC3CCOCC3)n2)ccc1Cl
Second: COc1ccc(-c2csc(NC(=O)c3ccc([N+](=O)[O-])s3)n2)cc1OC
The IC50 of the first is 120-fold higher: 16000 nM for the first, 130 nM for the second. The second is the more potent here.

Compared with `N#Cc1nc(C=Cc2ccccc2)oc1NCc1cccnc1`, `O=S1N=C(NCCCN(Cc2ccc(F)cc2)c2ccccn2)C(NCc2ccncc2)=N1` (centres undefined) is 50-fold lower in IC50: 16000 nM for the first, 320 nM for the second. The second is the more potent here.

Compared with `COc1ccc(S(=O)(=O)NCc2ccc(-c3ccc(CN(C)CCO)cc3)cc2)cc1`, `COc1ccc(-c2csc(NC(=O)c3ccc([N+](=O)[O-])s3)n2)cc1` is 41-fold lower in IC50: 3200 nM for the first, 79 nM for the second. The second is the more potent here.

First: CCCn1c(NC(=O)CCn2cc(Br)cn2)nc2ccccc21
Second: CNc1cc(C)nc(C2CN(C(=O)c3n[nH]c4ccccc34)CCO2)c1 (centres undefined)
The IC50 of the first is 2.5-fold lower: 7900 nM for the first, 20000 nM for the second. The first is the more potent here.

Compared with `Cc1cccc(NS(=O)(=O)c2ccc3c(c2)C(=O)c2cc(S(=O)(=O)Nc4cccc(C)c4C)ccc2-3)c1C`, `Cc1ccccc1NS(=O)(=O)c1ccc2[nH]cc(C(=O)NC3CCCC(C)C3C)c(=O)c2c1` (centres undefined) is 25-fold lower in IC50: 7900 nM for the first, 320 nM for the second. The second is the more potent here.

`C[C@@H](Oc1cc(-n2cnc3cc(N)ccc32)sc1C(N)=O)c1ccccc1Cl` gave an IC50 of 250 nM.

`CC(C)c1cc(C(=O)N2CCCC(c3cc4ncccc4[nH]3)C2)on1` (centres undefined) was tested, and the IC50 was > 40000 nM (inactive).
`CN1CCCN(C(=O)c2ccc(N3CCCC3)cc2Cl)CC1` was tested, and the IC50 was > 40000 nM (inactive).
For `O=C1CSC(c2cccnc2)N1c1ccc(Cl)cc1Cl` (centres undefined), the IC50 was > 40000 nM (inactive).
In the case of `Cc1nccn1C1CCCN(C(=O)c2cc3c(F)cccc3s2)C1` (centres undefined), the IC50 is reported as > 40000 nM (inactive).
In the case of `COc1cccc(-c2c(C)nn(-c3nc(N)nc(-c4ccccn4)n3)c2N)c1`, the IC50 is reported as > 40000 nM (inactive).
With `O=C1CCCCCC1(Cc1cnc[nH]1)c1ccc(Cl)cc1Cl` (centres undefined) the IC50 was > 40000 nM (inactive).
For `CN(Cc1nnnn1C1CCN(Cc2ccc(-n3ccnc3)cc2)CC1)c1ccc(F)cc1F`, the IC50 was > 40000 nM (inactive).
`CC1=NN(C(=O)CCn2cnc([N+](=O)[O-])n2)C(O)(C(F)(F)F)C1` (centres undefined) was tested, and the IC50 was > 40000 nM (inactive).
With `Cc1nc(C(=O)Nc2ccc3c(c2)OCO3)nn1-c1ccc(Cl)cc1` the IC50 was > 40000 nM (inactive).
With `Cc1cccc(NS(=O)(=O)c2cnc3sc(C)cn3c2=O)c1` the IC50 was > 40000 nM (inactive).
In the case of `COc1ccc(C(=O)N2CCC(Nc3cccnc3)C2)c(OC)n1` (centres undefined), the IC50 is reported as > 40000 nM (inactive).
`Cc1cc2cncn2c(C2CCCCN2C(=O)c2cccs2)n1` (centres undefined) was tested, and the IC50 was > 40000 nM (inactive).
For `CC(C(=O)Nc1ccc(Br)cc1)N1CCN(c2ccc([N+](=O)[O-])cc2)CC1` (centres undefined), the IC50 was > 40000 nM (inactive).
`COc1cccc(Nc2cc(C)nc(-c3ccccn3)n2)c1` was tested, and the IC50 was > 40000 nM (inactive).
`Cn1nc([N+](=O)[O-])nc1N1CCCCC1` was tested, and the IC50 was > 40000 nM (inactive).
For `Cc1nc(C(=O)Nc2ccc3c(c2)OCO3)nn1-c1ccc(F)cc1`, the IC50 was > 40000 nM (inactive).
In the case of `CC(Cn1ccnc1)NC(=O)COc1ccc(Cl)c(Cl)c1` (centres undefined), the IC50 is reported as > 40000 nM (inactive).
In the case of `CN(C)c1ncc(-c2cncn2CCOc2ccc(Cl)cc2)cn1`, the IC50 is reported as > 40000 nM (inactive).
For `COc1ccc(CN(C)Cc2ccncc2)cc1-c1ccc(S(=O)(=O)NC2CCC2)s1`, the IC50 was > 40000 nM (inactive).
In the case of `Cc1nc2nc(C)c(Cc3ccc(C(C)C)cc3)c(=O)n2[nH]1`, the IC50 is reported as > 40000 nM (inactive).
